One molecule from patent publication US20210228560A1 (Centogene IP GmbH, priority 2011, published 2021) can be followed below.

Each structure is given as a SMILES string. Substitutions are numbered along the chain they refer to. “Also recorded” adds a separate entry of the source. Read-outs that look alike come from different tables or passages of the source.

Experiment [1] addresses T1, Wild type α-galactosidase A (Replagal®, agalsidase alfa) (Homo sapiens, UniProt P06280).
T1 construct: purchased Shire Pharmaceuticals Replagal
T1 sequence (P06280 32-429): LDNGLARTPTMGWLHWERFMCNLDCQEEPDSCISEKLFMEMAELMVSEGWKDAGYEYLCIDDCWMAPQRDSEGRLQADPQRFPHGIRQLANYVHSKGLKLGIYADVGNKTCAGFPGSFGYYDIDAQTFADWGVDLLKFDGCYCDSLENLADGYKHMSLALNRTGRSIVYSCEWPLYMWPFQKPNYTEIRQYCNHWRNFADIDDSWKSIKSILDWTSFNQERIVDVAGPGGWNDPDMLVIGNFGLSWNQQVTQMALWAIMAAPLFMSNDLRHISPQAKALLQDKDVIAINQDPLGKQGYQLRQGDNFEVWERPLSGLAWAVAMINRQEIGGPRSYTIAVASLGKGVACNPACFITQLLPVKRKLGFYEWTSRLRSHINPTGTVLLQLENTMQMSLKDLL
Description: Inhibition of agalsidase alfa (Replagal), cell free. Type of experiment: biochemical. To be noted: for reduction of the enzyme activity, Ambroxol only: FIG. 8 inlay.

Another experiment addresses T2, GLA[R301G] (Homo sapiens, UniProt P06280, R301G).
T2 sequence (P06280 32-429 R301G): T1 sequence (P06280 32-429) with R270G
The experiment is classed as cell-based. As to conditions: 20 μM DGJ and 40 μM Ambroxol; untreated = 1.0; FIG. 5B.

Experiment [2] has as its target GLA mutants (alpha-galactosidase A) (Homo sapiens, UniProt P06280, R356W). To be noted: GLA mutant R356W; Ambroxol in combination with DGJ.
Experiment [3] has as its target GLA mutants (alpha-galactosidase A) (Homo sapiens, UniProt P06280, G328A). To be noted: GLA mutant G328A; Ambroxol in combination with DGJ.
In experiment [4] the target is GLA mutants (alpha-galactosidase A) (Homo sapiens, UniProt P06280, E59K). To be noted: GLA mutant E59K; Ambroxol in combination with DGJ.
Chain of GLA mutants (alpha-galactosidase A) (Homo sapiens, UniProt P06280, E59K) (P06280 32-429 E59K): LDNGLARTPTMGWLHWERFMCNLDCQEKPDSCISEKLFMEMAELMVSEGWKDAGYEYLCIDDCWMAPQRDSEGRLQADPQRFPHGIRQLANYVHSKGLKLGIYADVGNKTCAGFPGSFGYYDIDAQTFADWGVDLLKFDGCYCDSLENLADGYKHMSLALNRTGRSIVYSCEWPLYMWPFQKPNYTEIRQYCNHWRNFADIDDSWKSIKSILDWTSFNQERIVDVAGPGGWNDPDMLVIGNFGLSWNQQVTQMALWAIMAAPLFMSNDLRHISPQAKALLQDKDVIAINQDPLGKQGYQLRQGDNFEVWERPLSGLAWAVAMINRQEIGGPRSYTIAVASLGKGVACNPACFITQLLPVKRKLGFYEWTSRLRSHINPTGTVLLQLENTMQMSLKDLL
Experiment [5] has as its target GLA mutants (alpha-galactosidase A) (Homo sapiens, UniProt P06280, T410I). To be noted: GLA mutant T410I; Ambroxol in combination with DGJ.
For experiment [6], the target named is GLA mutants (alpha-galactosidase A) (Homo sapiens, UniProt P06280, H225R). As to conditions: GLA mutant H225R; Ambroxol in combination with DGJ.
Chain of GLA mutants (alpha-galactosidase A) (Homo sapiens, UniProt P06280, H225R) (P06280 32-429 H225R): as the sequence (P06280 32-429 E59K) above, with K28E, H194R counted along it
In experiment [7] the test system is GLA mutants (alpha-galactosidase A).
For experiment [8], the target named is GLA mutants (alpha-galactosidase A) (Homo sapiens, UniProt P06280, A156V). As to conditions: GLA mutant A156V; Ambroxol in combination with DGJ.
Chain of GLA mutants (alpha-galactosidase A) (Homo sapiens, UniProt P06280, A156V) (P06280 32-429 A156V): as the sequence (P06280 32-429 E59K) above, with K28E, A125V counted along it
The target in experiment [9] is GLA mutants (alpha-galactosidase A) (Homo sapiens, UniProt P06280, M51I). To be noted: GLA mutant M51I; Ambroxol in combination with DGJ.
Chain of GLA mutants (alpha-galactosidase A) (Homo sapiens, UniProt P06280, M51I) (P06280 32-429 M51I): as the sequence (P06280 32-429 E59K) above, with M20I, K28E counted along it
The next experiment deals with T3, wild type GLA (Homo sapiens, UniProt P06280).
T3 sequence (P06280 32-429): T1 sequence (P06280 32-429)
The experiment is classed as cell-based. As to the method:
A bacterial clone containing the full length cDNA of α-galactosidase A (IRAUp969H0320D, aligned to accession no. NM_000169.2 (GeneBank)) was received form ImaGenes GmbH, Berlin, Germany. Amplification was performed with the primers 5′-[…] […]-3′ (SEQ ID NO:1) and 5′-[…]-3′ (SEQ ID NO:2) introducing unique restriction sites for BamHI and BstBI. The PCR was taken out using cloned Pfu DNA polymerase (Stratagene). The cDNA was subcloned into pGEM-T Easy vector (Promega). Prior to ligation, the cDNA insert was incubated with Taq polymerase (Qiagen) to add a poly (A) overhang at the 3′-end for TA-cloning. For expression, the α-Gal A cDNA was ligated into target vector pcDNA3.1/V5-His6 (Invitrogen).

A further experiment concerns the target T4, GLA[A156V] (Homo sapiens, UniProt P06280, A156V).
T4 sequence (P06280 32-429 A156V): T1 sequence (P06280 32-429) with A125V
Type of experiment: cell-based. As to conditions: untreated = 1.0, FIG. 5A.

Chain of GLA mutants (alpha-galactosidase A) (Homo sapiens, UniProt P06280, G328A) (P06280 32-429 G328A): as the sequence (P06280 32-429 E59K) above, with K28E, G297A counted along it
Chain of GLA mutants (alpha-galactosidase A) (Homo sapiens, UniProt P06280, T410I) (P06280 32-429 T410I): as the sequence (P06280 32-429 E59K) above, with K28E, T379I counted along it
Chain of GLA mutants (alpha-galactosidase A) (Homo sapiens, UniProt P06280, R356W) (P06280 32-429 R356W): as the sequence (P06280 32-429 E59K) above, with K28E, R325W counted along it

For the molecule `Nc1c(Br)cc(Br)cc1CN[C@H]1CC[C@H](O)CC1` [Ambroxol, 2-amino-3,5-dibromo-N-[trans-4-hydroxycyclohexyl]benzylamine], in experiment [1] (40 μM Ambroxol), the “effect of Ambroxol on the inhibition of WT α-galactosidase A by DGJ” value is listed as “no effect”. In experiment [1] (cell free), the “effect of Ambroxol alone on the enzyme in the cell free assay” value is recorded as “not inhibited; also recorded: neither an inhibitory nor a stimulating effect”. Besides, the “reduction of the enzyme activity, Ambroxol only” value in experiment [1] (pH 4.5) and in experiment [1] (pH 6.7) was “No reduction” throughout. For the same molecule, on GLA[R301G], the “increase of GLA[R301G] activity” value was found to be 4.1 fold. The “additive Ambroxol effect demonstrated” value is listed as “**** (****p≤0.005)” in experiment [2]; “* (*p≤0.1)” in experiment [3]; “**** (****p≤0.005)” in [4]; “* (*p≤0.1)” in experiment [5]; “** (**p≤0.05)” in experiment [6]; “**** (****p≤0.005)” in [8]. Further, in experiment [9], the “additive Ambroxol effect demonstrated” value is recorded as “** (**p≤0.05)”. In addition, the “effect on enzyme activity of the mutant forms of GLA” value in experiment [7] (40 μM Ambroxol alone, FIG. 1) was “no effect”. In experiment [7] (compared to Galactose only, 100 mM galactose and 40 μM Ambroxol (FIG. 3B)), the “activity of mutant alpha-galactosidase A, Ambroxol together with Galactose” value is “increased”. Further, the “significance of protein activity, Ambroxol and DGJ compared to DGJ alone” value in experiment [7] (mutations E59K, A156V and G328A, FIG. 6) is “significant”. Further, the “enzyme activity of the GLA of the wild type” value on wild type GLA (40 μM Ambroxol alone, FIG. 1) was “increase in enzyme activity”. Besides, the “inhibition of wild type GLA” value against wild type GLA (Ambroxol dose-response, FIG. 2) is “not inhibiting”. For the same molecule, the “Ambroxol titer at or beyond which local maximum or saturation of wild type GLA activity” value at wild type GLA (FIG. 2) was > 60 µM. The EC50 (commonly the concentration that produces a half-maximal response) at wild type GLA (read-out: EC50 of increase of wild type GLA activity) is 21.2 µM. The “increase of GLA[A156V] activity” value is on record as 3.8 fold on GLA[A156V] (8 μM DGJ and 40 μM Ambroxol); “up to 8 fold” on GLA[A156V] (20 μM DGJ and 40 μM Ambroxol).
